Test results taken from PubChem BioAssay (NCI).
Several values for one entry are separate records, joined by “and”; a condition that tells them apart may be missing. Equal values may be shown once.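 Compound exposure: 48 hours, 5 concentrations, 96-well plates. At the GI50, growth is halved. TGI marks complete inhibition of growth.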

How the values were obtained:
Assay in all cases: inhibition of tumour cell growth, NCI panel, 48 h
A549 NSCLC = tested on: A549 NSCLC
BT-549 breast = tested on: BT-549 breast
HS 578T breast = tested on: HS 578T breast
NCI-H460 lung = tested on: NCI-H460 lung
OVCAR-4 ovarian = tested on: OVCAR-4 ovarian
OVCAR-5 ovarian = tested on: OVCAR-5 ovarian
SK-MEL-5 melanoma = tested on: SK-MEL-5 melanoma
SK-OV-3 ovarian = tested on: SK-OV-3 ovarian
SNB-19 CNS = tested on: SNB-19 CNS
HT29 colon = tested on: HT29 colon

O=C1c2c(c(=O)[nH]c3ccccc23)[C@H](c2ccccc2)[C@@H]2CCCN12
GI50 (A549 NSCLC): 20.2 µM
TGI (A549 NSCLC): > 100 µM
GI50 (BT-549 breast): 4.84 µM
TGI (BT-549 breast): 55.2 µM
GI50 (HS 578T breast): 2.89 µM
TGI (HS 578T breast): 11.1 µM
GI50 (NCI-H460 lung): 2.83 µM
TGI (NCI-H460 lung): 16.5 µM
GI50 (OVCAR-4 ovarian): 2.63 µM
TGI (OVCAR-4 ovarian): 11.6 µM
GI50 (OVCAR-5 ovarian): 2.7 µM
TGI (OVCAR-5 ovarian): 9.59 µM
GI50 (SK-MEL-5 melanoma): 2.01 µM
TGI (SK-MEL-5 melanoma): 5.07 µM
GI50 (SK-OV-3 ovarian): 9.56 µM
TGI (SK-OV-3 ovarian): 80 µM
GI50 (SNB-19 CNS): 3.93 µM
TGI (SNB-19 CNS): > 100 µM

COc1ccc(C(=O)/C=C/c2ccc(OCCCCCCCCCCOc3ccc(/C=C/C(=O)c4ccc(OC)cc4)cc3)cc2)cc1
TGI (A549 NSCLC): > 100 µM
TGI (HS 578T breast): > 100 µM
TGI (HT29 colon): > 100 µM
TGI (NCI-H460 lung): > 100 µM
TGI (OVCAR-4 ovarian): > 100 µM
TGI (OVCAR-5 ovarian): > 100 µM
TGI (SK-MEL-5 melanoma): > 100 µM
TGI (SK-OV-3 ovarian): > 100 µM
TGI (SNB-19 CNS): > 100 µM

[N-]=[N+]=NCN1C(=O)C2C3C=CC(C2C1=O)C1C2C(=O)N(CN=[N+]=[N-])C(=O)C2C31 (stereo unspecified)
TGI (A549 NSCLC): > 100 µM
TGI (HS 578T breast): > 100 µM
TGI (HT29 colon): > 100 µM
TGI (NCI-H460 lung): > 100 µM
TGI (SK-MEL-5 melanoma): > 100 µM
TGI (SNB-19 CNS): > 100 µM

CCC[CH2][Sn](=[O])[CH2]CCC
GI50 (A549 NSCLC): > 50 µM
TGI (A549 NSCLC): > 50 µM
GI50 (HT29 colon): > 50 µM
TGI (HT29 colon): > 50 µM
GI50 (NCI-H460 lung): > 50 µM
TGI (NCI-H460 lung): > 50 µM
GI50 (OVCAR-4 ovarian): > 50 µM
TGI (OVCAR-4 ovarian): > 50 µM
GI50 (OVCAR-5 ovarian): > 30.3 µM
TGI (OVCAR-5 ovarian): > 50 µM
GI50 (SK-MEL-5 melanoma): > 50 µM
TGI (SK-MEL-5 melanoma): > 50 µM
GI50 (SK-OV-3 ovarian): > 50 µM
TGI (SK-OV-3 ovarian): > 50 µM
GI50 (SNB-19 CNS): > 50 µM
TGI (SNB-19 CNS): > 50 µM

COc1ccc(CC(=O)NCCc2ccc(OC)c(OC)c2OC)cc1
TGI (A549 NSCLC): > 100 µM
TGI (HT29 colon): > 100 µM
TGI (NCI-H460 lung): > 100 µM
TGI (OVCAR-5 ovarian): > 100 µM
TGI (SK-MEL-5 melanoma): > 100 µM
TGI (SK-OV-3 ovarian): > 100 µM
TGI (SNB-19 CNS): > 100 µM

CC(C)(C)C1=CC(=N/N=c2\scc(-c3ccccc3)n2-c2ccccc2)C=C(C(C)(C)C)C1=O
TGI (A549 NSCLC): > 100 µM
TGI (HT29 colon): > 100 µM
TGI (NCI-H460 lung): > 100 µM
TGI (OVCAR-4 ovarian): > 100 µM
TGI (OVCAR-5 ovarian): > 100 µM
TGI (SK-MEL-5 melanoma): > 100 µM
TGI (SK-OV-3 ovarian): > 100 µM
TGI (SNB-19 CNS): > 100 µM

c1ccc(SC(Sc2ccccc2)=C2CCC2)cc1
TGI (A549 NSCLC): > 100 µM
TGI (NCI-H460 lung): > 100 µM
TGI (OVCAR-4 ovarian): > 100 µM
TGI (SK-MEL-5 melanoma): > 100 µM
TGI (SK-OV-3 ovarian): > 100 µM
TGI (SNB-19 CNS): > 100 µM

O=C1c2ccccc2-c2c3c(cc4ccnc1c24)OCO3
TGI (A549 NSCLC): 14.3 µM and 17.4 µM
TGI (HT29 colon): > 100 µM and 78 µM
TGI (NCI-H460 lung): 19.6 µM and 16.4 µM
TGI (OVCAR-4 ovarian): 69.7 µM and > 100 µM
TGI (OVCAR-5 ovarian): 37.8 µM and 57.6 µM
TGI (SK-MEL-5 melanoma): 8.66 µM
TGI (SK-OV-3 ovarian): 84.4 µM and > 100 µM
TGI (SNB-19 CNS): > 100 µM and 77.4 µM

NC(=S)N1N=C2CCCCCC[C@@H]2[C@H]1c1ccccc1
TGI (A549 NSCLC): > 100 µM
TGI (HT29 colon): > 100 µM
TGI (NCI-H460 lung): > 100 µM
TGI (OVCAR-5 ovarian): > 100 µM
TGI (SK-MEL-5 melanoma): > 100 µM
TGI (SK-OV-3 ovarian): > 100 µM
TGI (SNB-19 CNS): > 100 µM

C=C(C)[C@@H]1CC[C@]2(CO)CC[C@]3(C)[C@H](CC[C@@H]4[C@@]5(C)CCCNC(C)(C)[C@@H]5CC[C@]43C)[C@@H]12
GI50 (A549 NSCLC): 1.73 µM
TGI (A549 NSCLC): 3.24 µM
GI50 (HS 578T breast): 1.99 µM
TGI (HS 578T breast): 4.79 µM
GI50 (NCI-H460 lung): 1.63 µM
TGI (NCI-H460 lung): 3.21 µM
GI50 (OVCAR-5 ovarian): 1.51 µM
TGI (OVCAR-5 ovarian): 2.89 µM
GI50 (SK-MEL-5 melanoma): 1.38 µM
TGI (SK-MEL-5 melanoma): 2.7 µM
GI50 (SK-OV-3 ovarian): 1.83 µM
TGI (SK-OV-3 ovarian): 3.49 µM
GI50 (SNB-19 CNS): 1.75 µM
TGI (SNB-19 CNS): 3.2 µM

COc1ccc(N2C(=O)C3CC(c4ccc(Br)cc4)c4c([nH]c5ccccc45)C3C2=O)cc1 (stereo unspecified)
TGI (A549 NSCLC): 6.96 µM
TGI (HT29 colon): 44.5 µM
TGI (NCI-H460 lung): 17.2 µM
TGI (OVCAR-4 ovarian): 9.29 µM
TGI (OVCAR-5 ovarian): 73.4 µM
TGI (SK-MEL-5 melanoma): 35.5 µM
TGI (SNB-19 CNS): 10.5 µM
